Experimental data from patent US11807835B2, “Detergent compositions containing a stabilized enzyme by phosphonates” (ECOLAB USA INC., priority 2016, dated 2023).

Tested on: lipase
Experiment: Lipase activity retention in detergent use solution (4000 ppm, 5 GPG water; p-nitrophenyl valerate, TRIS buffer pH 8.0)
Format: biochemical
Settings: for Relative Lipase Enzyme Activity in a Use Solution: Table 6E, room temperature; for Relative Lipase Enzyme Activity in a Use Solution of the All Ash Detergent Composition: Table 6F, all ash formula, 120º F.; for Relative Lipase Enzyme Activity: base formula
Experimental: The enzyme […] collected up to 4 hours, after a use solution was generated from the detergent composition. During the tests, the samples at different time points were collected and immediately frozen in an acetone/dry ice bath and stored in −80° C. before the activity of the enzyme was evaluated. For the use of such an assay, t=0 min was the reference point for 100% enzyme activity.
Assays of enzyme activity in formulations (% retention) were conducted to simulate a presoak condition in a beaker using the chemistry, temperature, and pH conditions relevant to manual warewash or presoak applications. Enzyme activity is an indicator of the stability of the enzyme in the detergent, specifically in an aqueous use solution within a sump (which is under conditions of high pH, temperature and dilution).
Enzyme activity under presoak or manual warewash conditions was traced quantitatively using a standard protease assay. Samples were prepared under bench top conditions, whereby the use solution from a detergent composition or detergent was obtained and maintained at a presoak or manual warewash temperature in a stirring water bath. After the time course for assessing enzyme stability is initiated, aliquots were taken at various time points and flash-frozen. A time=0 sample was prepared for each series by dissolving the detergent formulation at room temperature, mixing thoroughly, and flash freezing. Samples were thawed and diluted as necessary in an assay buffer usually for use in the protease assay. A glycine buffer at pH 9.0 is used here. The assay monitored the direct reaction of the protease on a small, commercially available peptidyl substrate, with liberation of the product providing correlation to the active enzyme content. The product was detected using a plate reader with an appreciable dynamic range (upper absorbance limit of the instrument >3.5). Enzyme activity levels were assessed relative to a calibration curve with average values for replicate tests used to map protease stability under presoak or manual warewash use conditions. Enzyme retention at each time point was calculated as the % enzyme activity relative to the time=0 sample.
The analysis by lipase and amylase assay was conducted similarly, except with a different substrate and buffers. For lipase activity, the substrate is p-nitrophenyl valerate, and for amylase, the substrate is an ethylidene substrate (EPS). The buffer used in lipase assay is TRIS (Tris(hydroxymethyl)aminomethane) buffer at pH 8.0, and in amylase assay HEPES (4-(2-hydroxyethyl)-1-piperazineethanesulfonic acid) buffer at pH 8.0.

[1] = phosphonate 0.3 wt-%, time 0 min
[2] = phosphonate 0.3 wt-%, time 5 min
[3] = phosphonate 0.3 wt-%, time 10 min
[4] = phosphonate 0.3 wt-%, time 20 min
[5] = phosphonate 0.3 wt-%, time 40 min
[6] = phosphonate 0.3 wt-%, time 60 min
[7] = phosphonate 0.3 wt-%, time 90 min
[8] = phosphonate 0.3 wt-%, time 120 min
[9] = phosphonate 0.3 wt-%, time 150 min
[10] = phosphonate 0.3 wt-%, time 180 min
[11] = phosphonate 0.3 wt-%, time 210 min
[12] = phosphonate 0.3 wt-%, time 240 min

## CC(O)(P(=O)(O)O)P(=O)(O)O [HEDP, 1-hydroxy ethylidene-1,1-diphosphonic acid]
[1]
  Relative Lipase Enzyme Activity in a Use Solution: 100.00%
  Relative Lipase Enzyme Activity in a Use Solution of the All Ash Detergent Composition: 100.00%
[2]
  Relative Lipase Enzyme Activity in a Use Solution: 101.22%
  Relative Lipase Enzyme Activity in a Use Solution of the All Ash Detergent Composition: 39.01%
[3]
  Relative Lipase Enzyme Activity in a Use Solution: 102.97%
  Relative Lipase Enzyme Activity in a Use Solution of the All Ash Detergent Composition: 21.35%
[4]
  Relative Lipase Enzyme Activity in a Use Solution: 98.65%
  Relative Lipase Enzyme Activity in a Use Solution of the All Ash Detergent Composition: 7.45%
[5]
  Relative Lipase Enzyme Activity in a Use Solution: 81.12%
  Relative Lipase Enzyme Activity in a Use Solution of the All Ash Detergent Composition: 0.88%
[6]
  Relative Lipase Enzyme Activity in a Use Solution: 89.82%
  Relative Lipase Enzyme Activity in a Use Solution of the All Ash Detergent Composition: −0.91%
[7]
  Relative Lipase Enzyme Activity in a Use Solution: 104.91%
  Relative Lipase Enzyme Activity in a Use Solution of the All Ash Detergent Composition: −1.68%
[8]
  Relative Lipase Enzyme Activity in a Use Solution: 100.99%
  Relative Lipase Enzyme Activity in a Use Solution of the All Ash Detergent Composition: −1.38%
[9]
  Relative Lipase Enzyme Activity in a Use Solution: 100.18%
  Relative Lipase Enzyme Activity in a Use Solution of the All Ash Detergent Composition: −1.94%
[10]
  Relative Lipase Enzyme Activity in a Use Solution: 100.45%
  Relative Lipase Enzyme Activity in a Use Solution of the All Ash Detergent Composition: −4.15%
[11]
  Relative Lipase Enzyme Activity in a Use Solution: 98.87%
  Relative Lipase Enzyme Activity in a Use Solution of the All Ash Detergent Composition: −4.41%
[12]
  Relative Lipase Enzyme Activity in a Use Solution: 99.95%
  Relative Lipase Enzyme Activity in a Use Solution of the All Ash Detergent Composition: −3.60%
Phosphonate 0.3 wt-%, use solution at 120° F., time 0 min
  Relative Lipase Enzyme Activity: 100.00%
Phosphonate 0.3 wt-%, use solution at 120° F., time 5 min
  Relative Lipase Enzyme Activity: 47.15%
Phosphonate 0.3 wt-%, use solution at 120° F., time 10 min
  Relative Lipase Enzyme Activity: 44.35%
Phosphonate 0.3 wt-%, use solution at 120° F., time 20 min
  Relative Lipase Enzyme Activity: 34.94%
Phosphonate 0.3 wt-%, use solution at 120° F., time 40 min
  Relative Lipase Enzyme Activity: 23.40%
Phosphonate 0.3 wt-%, use solution at 120° F., time 60 min
  Relative Lipase Enzyme Activity: 17.75%
Phosphonate 0.3 wt-%, use solution at 120° F., time 90 min
  Relative Lipase Enzyme Activity: 11.06%
Phosphonate 0.3 wt-%, use solution at 120° F., time 120 min
  Relative Lipase Enzyme Activity: 6.92%
Phosphonate 0.3 wt-%, use solution at 120° F., time 150 min
  Relative Lipase Enzyme Activity: 5.38%
Phosphonate 0.3 wt-%, use solution at 120° F., time 180 min
  Relative Lipase Enzyme Activity: 2.90%
Phosphonate 0.3 wt-%, use solution at 120° F., time 210 min
  Relative Lipase Enzyme Activity: 2.62%
Phosphonate 0.3 wt-%, use solution at 120° F., time 240 min
  Relative Lipase Enzyme Activity: 2.32%
Phosphonate 0.6 wt-%, use solution at 120º F., time 0 min
  Relative Lipase Enzyme Activity: 100.00%
Phosphonate 0.6 wt-%, use solution at 120º F., time 5 min
  Relative Lipase Enzyme Activity: 62.99%
Phosphonate 0.6 wt-%, use solution at 120º F., time 10 min
  Relative Lipase Enzyme Activity: 59.92%
Phosphonate 0.6 wt-%, use solution at 120º F., time 20 min
  Relative Lipase Enzyme Activity: 48.34%
Phosphonate 0.6 wt-%, use solution at 120º F., time 40 min
  Relative Lipase Enzyme Activity: 33.30%
Phosphonate 0.6 wt-%, use solution at 120º F., time 60 min
  Relative Lipase Enzyme Activity: 23.22%
Phosphonate 0.6 wt-%, use solution at 120º F., time 90 min
  Relative Lipase Enzyme Activity: 17.91%
Phosphonate 0.6 wt-%, use solution at 120º F., time 120 min
  Relative Lipase Enzyme Activity: 14.72%
Phosphonate 0.6 wt-%, use solution at 120º F., time 150 min
  Relative Lipase Enzyme Activity: 12.63%
Phosphonate 0.6 wt-%, use solution at 120º F., time 180 min
  Relative Lipase Enzyme Activity: 7.01%
Phosphonate 0.6 wt-%, use solution at 120º F., time 210 min
  Relative Lipase Enzyme Activity: 8.08%
Phosphonate 0.6 wt-%, use solution at 120º F., time 240 min
  Relative Lipase Enzyme Activity: 5.20%
Phosphonate at 0.1% elemental phosphorus, at 120º F. or at room temperature (as titled), time 0 min
  Relative Lipase Enzyme Activity: 100.00%
Phosphonate at 0.1% elemental phosphorus, at 120º F. or at room temperature (as titled), time 5 min
  Relative Lipase Enzyme Activity: 79.12%
Phosphonate at 0.1% elemental phosphorus, at 120º F. or at room temperature (as titled), time 10 min
  Relative Lipase Enzyme Activity: 67.70%
Phosphonate at 0.1% elemental phosphorus, at 120º F. or at room temperature (as titled), time 20 min
  Relative Lipase Enzyme Activity: 51.16%
Phosphonate at 0.1% elemental phosphorus, at 120º F. or at room temperature (as titled), time 40 min
  Relative Lipase Enzyme Activity: 25.69%
Phosphonate at 0.1% elemental phosphorus, at 120º F. or at room temperature (as titled), time 60 min
  Relative Lipase Enzyme Activity: 19.99%
Phosphonate at 0.1% elemental phosphorus, at 120º F. or at room temperature (as titled), time 90 min
  Relative Lipase Enzyme Activity: 16.10%
Phosphonate at 0.1% elemental phosphorus, at 120º F. or at room temperature (as titled), time 120 min
  Relative Lipase Enzyme Activity: 13.04%
Phosphonate at 0.1% elemental phosphorus, at 120º F. or at room temperature (as titled), time 150 min
  Relative Lipase Enzyme Activity: 11.14%
Phosphonate at 0.1% elemental phosphorus, at 120º F. or at room temperature (as titled), time 180 min
  Relative Lipase Enzyme Activity: 9.12%
Phosphonate at 0.1% elemental phosphorus, at 120º F. or at room temperature (as titled), time 210 min
  Relative Lipase Enzyme Activity: 7.99%
Phosphonate at 0.1% elemental phosphorus, at 120º F. or at room temperature (as titled), time 240 min
  Relative Lipase Enzyme Activity: 7.70%
